From patent publication US6849593B1, “Bifidogenic peptides” (Pharis Biotec GmbH, priority 1997, dated 2005) come the findings set out here.

For this assay, the system named is Bifidobacterium bifidum ATCC 29521. The assay can be described thus: bifidogenic activity: growth test with bifidobacteria in combination with a growth test with E. coli. Format: cell-based. The note with it: growth of Bifidobacterium bifidum (50% Elliker broth, anaerobic, 37° C., 16 hours) relative to growth of E. coli K12 (3 g/l tryptic soy broth, 16 hours); desalted HPLC fractions from pepsin-treated human milk. As for the experimental part: This object is achieved by peptides having the features of claim 1. […]
For each assay, cultures of E. coli K12 were freshly inoculated in tryptic soy broth (Sigma, Deisenhofen, Germany, order No. T8907) (Difco Manual, 10th ed., p. 1027). […] The photometric absorption of the inoculum was 0.05, measured at 500 nm. The growth of the bacteria under the influence of the peptides was also photometrically determined in an ELISA reader after 16 hours and manually determined by microscopy.
For each assay, cultures of Bifidobacterium bifidum ATCC 29521 were freshly inoculated in Elliker broth (Difco, Detroit, USA) (tryptone 20 g, yeast extract 5 g, gelatin 2.5 g, dextrose 5 g, lactose 5 g, saccharose 5 g, sodium chloride 4 g, sodium acetate 1.5 g, ascorbic acid 0.5 g). […] The photometric absorption of the inoculum was 0.05, measured at 550 nm. The growth of the bacteria under the influence of the peptides was also photometrically determined in an ELISA reader after 16 hours and manually determined by microscopy. […]

As to “GRRRRSVQWCAVSQPEATKCFQWQRNMRKVRGPPVSCIKRDSPICCIQA (GRRRSVQWCAVSQPEATKCFQWQRNMRKVRGPPVSCIKRDSPIQCIQA) [neutrophile lactoferrin-20-67, bifidogenic component of fraction 10, peptide isolated from pepsin-treated human milk]”, the bifidogenic activity result is given as “bifidogenic”. As for “YQRRPAIAINNPYVPRTYYANPAVVRPHAQIPQRQYLPNSHPPTVVRRPLPSF (YQRRPAIAINNPYVPRTYYANPAVVRPHAQIPQRQYLPNSHPPTVVRRPNLHPSF) [casein K-63-117, pure bifidogenic component of fraction 9, peptide isolated from pepsin-treated human milk]”, the bifidogenic activity result was “bifidogenic”.
